Results reported in US20100298141A1, “SUBSTITUTED PYRIDINE N-OXIDE HERBICIDES” (E. I. DU PONT DE NEMOURS AND COMPANY, priority 2007, published 2010).

Key:
[1] = tested on: pigweed; assay: Test C pre-/postemergence test; type: in vivo, Amaranthus retroflexus; conditions: Preemergence
Procedure, shortened: (§1)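 Seeds were planted and treated preemergence with test chemical in a non-phytotoxic solvent mixture containing surfactant. Postemergence applications of the same formulation went onto plants 2 to 18 cm tall (1- to 4-leaf stage). A dash marks no test result.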

[2] = tested on: crabgrass; assay: Test A pre-/postemergence greenhouse test; type: in vivo, Digitaria sanguinalis; conditions: for Crabgrass, Large plant response rating: 0 to 100 scale
Procedure, shortened: (§2)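 Visual injury ratings against untreated controls, taken roughly ten days after treatment in greenhouse. Plants were sprayed postemergence at one- to two-leaf stage (2–10 cm tall); at the same time, seeded loam/sand soil received a directed preemergence spray. Formulation: non-phytotoxic solvent mixture with surfactant.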

[3] = tested on: umbrella sedge; assay: Test C flooded paddy test; type: in vivo, Cyperus difformis; conditions: Flood
Procedure, shortened: (§3)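 Under a constant 3 cm flood, test compounds went directly into the paddy water. Following 13 to 15 days of greenhouse growth, treated species and controls were compared by eye.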

[4] = tested on: bermudagrass; assay: Test C pre-/postemergence test; type: in vivo, Cynodon dactylon
Procedure, shortened: as §1

[5] = tested on: barnyardgrass; assay: Test C flooded paddy test; type: in vivo, Echinochloa crus-galli; conditions: Flood
Procedure, shortened: as §3

[6] = tested on: Goosegrass; assay: Test C pre-/postemergence test; type: in vivo, Eleusin indica; conditions: Preemergence
Procedure, shortened: as §1

[7] = tested on: crabgrass; assay: Test C pre-/postemergence test; type: in vivo, Digitaria sanguinalis; conditions: Preemergence
Procedure, shortened: as §1

[8] = tested on: Italian ryegrass; assay: Test C pre-/postemergence test; type: in vivo, Lolium multiflorum; conditions: Preemergence
Procedure, shortened: as §1

[9] = tested on: soybean; assay: Test C pre-/postemergence test; type: in vivo, Glycine max; conditions: 62 g ai/ha, Preemergence; scale 0 to 100
Procedure, shortened: as §1

[10] = tested on: corn; assay: Test A pre-/postemergence greenhouse test; type: in vivo, Zea mays; conditions: for Corn plant response rating: 0 to 100 scale
Procedure, shortened: as §2

[11] = tested on: yellow nutsedge; assay: Test C pre-/postemergence test; type: in vivo, Cyperus esculentus; conditions: Preemergence
Procedure, shortened: as §1

[12] = tested on: barnyardgrass; assay: Test A pre-/postemergence greenhouse test; type: in vivo, Echinochloa crus-galli; conditions: for Barnyardgrass plant response rating: 0 to 100 scale
Procedure, shortened: as §2

[13] = tested on: corn; assay: Test C pre-/postemergence test; type: in vivo, Zea mays
Procedure, shortened: as §1

[14] = tested on: duck salad; assay: Test C flooded paddy test; type: in vivo, Heteranthera limosa; conditions: Flood
Procedure, shortened: as §3

[15] = tested on: green foxtail; assay: Test C pre-/postemergence test; type: in vivo, Setaria viridis; conditions: Preemergence
Procedure, shortened: as §1

[16] = tested on: johnsongrass; assay: Test C pre-/postemergence test; type: in vivo, Sorghum halepense; conditions: Preemergence
Procedure, shortened: as §1

[17] = tested on: velvetleaf; assay: Test A pre-/postemergence greenhouse test; type: in vivo, Abutilon theophrasti; conditions: for Velvetleaf plant response rating: 0 to 100 scale
Procedure, shortened: as §2

[18] = 31 g ai/ha, scale 0 to 100 (0 no effect, 100 complete control)
[19] = Postemergence, 125 g ai/ha, 0 is no effect, 100 is complete control
[20] = Postemergence, 500 g ai/ha, 0 is no effect, 100 is complete control
[21] = Preemergence, 125 g ai/ha, 0 no effect, 100 complete control
[22] = Preemergence, 500 g ai/ha, 0 to 100 scale where 0 is no effect and 100 is complete control
[23] = 62 g ai/ha, scale 0 to 100, 0 no effect, 100 complete control, 13 to 15 days
[24] = 125 g ai/ha, scale 0 to 100, 0 no effect, 100 complete control, 13 to 15 days
[25] = Preemergence, 31 g ai/ha, scale 0 to 100 (0 no effect, 100 complete control)
[26] = preemergence, 125 g ai/ha, scale 0 (no effect) to 100 (complete control)
[27] = 250 g ai/ha, scale 0 to 100 (0 no effect, 100 complete control)

Cn1nc(C(F)(F)F)c(C[S+]([O-])c2cccc[n+]2[O-])c1OCC(F)(F)F (racemic) [Compound 28]
Pigweed plant response rating ([1]; 62 g ai/ha, scale 0 to 100): 100 | Plant response rating, Pigweed [1, 18]: 100 | Crabgrass, Large plant response rating [2, 19]: 80 | Crabgrass, Large plant response rating [2, 20]: 90 | Crabgrass, Large plant response rating [2, 21]: 100 | Plant response rating, Crabgrass, Large [2, 22]: 100 | Plant response rating, Sedge, Umbrella [3, 18]: 75 | Plant response rating, Sedge, Umbrella [3, 23]: 95 | Plant response rating, Sedge, Umbrella [3, 24]: 100 | Plant response rating, Sedge, Umbrella ([3]; 250 g ai/ha, scale 0 to 100, 0 no effect, 100 complete control, 13 to 15 days): 100 | Bermudagrass plant response rating ([4]; 62 g ai/ha, Preemergence, scale 0 to 100 (0 no effect, 100 complete control)): 100 | Plant response rating, Bermudagrass [4, 25]: 100 | Plant response rating (0 to 100), Bermudagrass ([4]; Preemergence, 250 g ai/ha): 100 | Bermudagrass plant response rating [4, 26]: 100 | Plant response rating, Barnyardgrass [5, 18]: 0 | Plant response rating, Barnyardgrass [5, 23]: 20 | Plant response rating, Barnyardgrass [5, 24]: 65 | Plant response rating, Barnyardgrass [5, 27]: 85 | Goosegrass plant response rating ([6]; 62 g ai/ha, scale 0 to 100): 100 | Plant response rating, Goosegrass [6, 18]: 100 | Plant response rating (0 to 100), Goosegrass ([6]; 250 g ai/ha): 100 | Crabgrass, Large plant response rating ([7]; 62 g ai/ha, scale 0 to 100): 100 | Plant response rating, Crabgrass, Large [7, 18]: 100 | Plant response rating (0 to 100), Crabgrass, Large ([7]; 250 g ai/ha): 100 | Ryegrass, Italian plant response rating ([8]; 62 g ai/ha, scale 0 to 100): 85 | Plant response rating, Ryegrass, Italian [8, 18]: 80 | Soybean plant response rating [9]: 95 | Corn plant response rating [10, 19]: 60 | Corn plant response rating [10, 20]: 70 | Corn plant response rating [10, 21]: 0 | Plant response rating, Corn [10, 22]: 80 | Nutsedge, Yellow plant response rating ([11]; 62 g ai/ha, scale 0 to 100): 80 | Plant response rating, Nutsedge, Yellow [11, 18]: 80 | Barnyardgrass plant response rating [12, 19]: 80 | Barnyardgrass plant response rating [12, 20]: 90 | Barnyardgrass plant response rating [12, 21]: 90 | Plant response rating, Barnyardgrass [12, 22]: 100 | Corn plant response rating ([13]; 62 g ai/ha, Preemergence, scale 0 to 100): 85 | Plant response rating, Corn [13, 25]: 30 | Plant response rating (0 to 100), Corn ([13]; Preemergence, 250 g ai/ha): 100 | Corn plant response rating [13, 26]: 100 | Plant response rating, Ducksalad [14, 18]: 65 | Plant response rating, Ducksalad [14, 23]: 80 | Plant response rating, Ducksalad [14, 24]: 95 | Plant response rating, Ducksalad [14, 27]: 95 | Foxtail, Green plant response rating ([15]; 62 g ai/ha, scale 0 to 100): 100 | Plant response rating, Foxtail, Green [15, 18]: 100 | Plant response rating (0 to 100), Foxtail, Green ([15]; 250 g ai/ha): 100 | Johnsongrass plant response rating ([16]; 62 g ai/ha, scale 0 to 100): 100 | Plant response rating, Johnsongrass [16, 18]: 85 | Plant response rating (0 to 100), Johnsongrass ([16]; 250 g ai/ha): 100 | Velvetleaf plant response rating [17, 19]: 70 | Velvetleaf plant response rating [17, 20]: 80 | Velvetleaf plant response rating [17, 21]: 80 | Plant response rating, Velvetleaf [17, 22]: 100
